According to US11786537B2 (priority 2022, dated 2023):
“Also recorded” adds a separate entry of the source.

Experiments:
[1] = test system: VERO-E6 cells; assay: MTT cytotoxicity assay (CC50); type: cell-based; conditions: 24 h, in words
Description: To assess the half maximal cytotoxic concentration (CC50), stock solutions of the test compounds were prepared in 10% DMSO in ddH2O and diluted further to the working solutions with DMEM. The cytotoxic activity of the extracts was tested in VERO-E6 cells by using the 3-(4,5-dimethylthiazol-2-yl)-2,5-diphenyltetrazolium bromide (MTT) method with minor modifications. Briefly, the cells were seeded in 96 well-plates (100 μl/well at a density of 3×10^5 cells/ml) and incubated for 24 h at 37° C. in 5% CO2. After 24 h, cells were treated with various concentrations of the tested compounds in triplicates. 24 h later, the supernatant was discarded, and cell monolayers were washed with sterile 1× phosphate buffer saline (PBS) 3 times and MTT solution (20 μl of 5 mg/ml stock solution) was add to each well and incubated at 37° C. for 4 h followed by medium aspiration. In each well, the formed formazan crystals were dissolved with 200 μl of acidified isopropanol (0.04 M HCl in absolute isopropanol=0.073 ml HCL in 50 ml isopropanol). Absorbance of formazan solutions was measured at λ max 540 nm with 620 nm as a reference wavelength using a multi-well plate reader. […]

[2] = test system: SARS-CoV-2 (hCoV-19/Egypt/NRC-03/2020); type: cell-based

| Substance | toxicity [1] | antiviral activity against SARS-CoV-2 [2] | inhibitory effect / viral inhibition [2] |
| --- | --- | --- | --- |
| 4,4-bis[(dimethylamino)methoxy]-7,7′-dihexyl-10,10′-dimethyl-3,3′-bis(4-nitrophenyl)-8,8′-dioxo-4,4′-spirobi[5-oxa-2,7-diaza-3-azonia-4λ^6-cuprabicyclo[4.4.0]deca-1(6),2,9-triene]-9,9′-dicarbonitrile [Complex D1] | low toxicity | active antiviral activity; also recorded: significant antiviral activity | somewhat higher inhibitory effect compared to D2; also recorded: acceptable range of viral inhibition |
| 7,7′-dihexyl-10,10′-dimethyl-8,8′-dioxo-3,3′-bis(p-tolyl)-4,4′-spirobi[5-oxa-2,7-diaza-3-azonia-4λ^4-cuprabicyclo[4.4.0]deca-1(6),2,9-triene]-9,9′-dicarbonitrile [Complex D2] | low toxicity | active antiviral activity; also recorded: significant antiviral activity | acceptable range of viral inhibition |
